Reference: US20250049791A1, “Synthesis of MEK7 Inhibitors and methods of Use Thereof” (Northwestern University, priority 2023, published 2025)
“Also recorded” adds a separate entry of the source.

What was measured:
MEK3 = biological target: T1, MEK3 (Homo sapiens, UniProt P46734); experiment: Additional selectivity assay, MEK3 (FIG. 9); format: binding
T1 sequence (P46734 1-347): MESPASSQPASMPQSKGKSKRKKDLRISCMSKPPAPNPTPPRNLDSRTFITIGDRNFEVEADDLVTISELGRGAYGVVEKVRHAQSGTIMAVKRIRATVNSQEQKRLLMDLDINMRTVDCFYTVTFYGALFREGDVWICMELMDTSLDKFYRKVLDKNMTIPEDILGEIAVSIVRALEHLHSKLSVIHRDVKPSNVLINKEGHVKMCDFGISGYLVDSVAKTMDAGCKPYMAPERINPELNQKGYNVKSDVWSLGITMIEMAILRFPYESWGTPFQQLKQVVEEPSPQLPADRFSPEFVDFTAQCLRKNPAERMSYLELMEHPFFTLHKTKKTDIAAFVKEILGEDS

EGFR = biological target: T2, EGFR (Homo sapiens, UniProt P00533); experiment: ScanEDGE competition binding, EGFR; details: at 1 μM; b168 prints 1 M
T2 construct: purchased DiscoverX (Eurofins)
T2 sequence (P00533 25-1210): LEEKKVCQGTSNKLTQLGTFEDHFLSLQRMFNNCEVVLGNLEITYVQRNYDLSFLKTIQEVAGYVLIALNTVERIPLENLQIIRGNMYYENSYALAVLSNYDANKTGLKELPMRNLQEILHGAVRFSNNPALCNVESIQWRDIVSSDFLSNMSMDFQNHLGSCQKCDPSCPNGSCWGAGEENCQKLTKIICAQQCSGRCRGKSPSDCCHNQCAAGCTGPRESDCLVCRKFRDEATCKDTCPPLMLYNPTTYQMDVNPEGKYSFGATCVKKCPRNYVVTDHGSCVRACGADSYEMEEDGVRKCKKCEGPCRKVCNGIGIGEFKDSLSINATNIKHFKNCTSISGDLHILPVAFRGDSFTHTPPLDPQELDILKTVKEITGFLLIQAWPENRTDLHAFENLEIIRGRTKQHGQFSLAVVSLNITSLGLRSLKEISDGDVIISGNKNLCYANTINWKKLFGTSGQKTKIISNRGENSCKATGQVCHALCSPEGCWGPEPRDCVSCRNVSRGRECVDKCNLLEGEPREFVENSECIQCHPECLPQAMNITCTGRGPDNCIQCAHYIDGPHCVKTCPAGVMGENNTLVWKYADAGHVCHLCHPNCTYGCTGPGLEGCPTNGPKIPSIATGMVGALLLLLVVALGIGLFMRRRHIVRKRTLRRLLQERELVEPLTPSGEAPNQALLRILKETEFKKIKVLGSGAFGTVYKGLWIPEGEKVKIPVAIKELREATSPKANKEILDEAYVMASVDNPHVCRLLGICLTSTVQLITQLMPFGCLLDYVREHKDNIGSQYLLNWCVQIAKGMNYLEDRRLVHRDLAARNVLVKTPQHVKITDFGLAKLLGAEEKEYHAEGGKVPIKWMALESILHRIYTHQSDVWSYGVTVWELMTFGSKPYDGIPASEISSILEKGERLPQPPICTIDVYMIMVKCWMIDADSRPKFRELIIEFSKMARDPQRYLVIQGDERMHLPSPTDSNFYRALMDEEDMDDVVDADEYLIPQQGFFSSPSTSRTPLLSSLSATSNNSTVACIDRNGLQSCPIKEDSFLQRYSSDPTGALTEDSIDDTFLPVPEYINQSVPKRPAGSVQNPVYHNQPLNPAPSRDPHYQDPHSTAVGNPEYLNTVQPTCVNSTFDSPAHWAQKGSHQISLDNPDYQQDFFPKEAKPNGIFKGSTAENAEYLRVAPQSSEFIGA
Source text: (§1) The ScanEDGE assay, completed by DiscoverX (Eurofins) is a proprietary active site-directed competition binding assay. Compounds that bind the kinase active site prevent kinase binding to the immobilized ligand, reducing the amount of kinase captured on the solid support. Hits are identified by measuring the amount of kinase captured in experimental vs, control samples by a qPCR method that detects an associated DNA label. According to data provided by Eurofins, a typical hit at 5-10% of control signal in a 1 μM assay as shown above is generally associated with a KD in the range of 100-1,000 nM. Readings with greater than 35% of control signal correspond to exceeding large dissociation constants.

MEK1/2 = experiment: ScanEDGE competition binding, MEK1/2; details: ScanEDGE screen
Source text: as §1

p38α/β = experiment: ScanEDGE competition binding, p38α/β; details: ScanEDGE screen
Source text: as §1

FLT3 = biological target: T3, FLT3 (Homo sapiens, UniProt P36888); experiment: ScanEDGE competition binding, FLT3; details: ScanEDGE screen
T3 construct: purchased DiscoverX (Eurofins)
T3 sequence (P36888 27-993): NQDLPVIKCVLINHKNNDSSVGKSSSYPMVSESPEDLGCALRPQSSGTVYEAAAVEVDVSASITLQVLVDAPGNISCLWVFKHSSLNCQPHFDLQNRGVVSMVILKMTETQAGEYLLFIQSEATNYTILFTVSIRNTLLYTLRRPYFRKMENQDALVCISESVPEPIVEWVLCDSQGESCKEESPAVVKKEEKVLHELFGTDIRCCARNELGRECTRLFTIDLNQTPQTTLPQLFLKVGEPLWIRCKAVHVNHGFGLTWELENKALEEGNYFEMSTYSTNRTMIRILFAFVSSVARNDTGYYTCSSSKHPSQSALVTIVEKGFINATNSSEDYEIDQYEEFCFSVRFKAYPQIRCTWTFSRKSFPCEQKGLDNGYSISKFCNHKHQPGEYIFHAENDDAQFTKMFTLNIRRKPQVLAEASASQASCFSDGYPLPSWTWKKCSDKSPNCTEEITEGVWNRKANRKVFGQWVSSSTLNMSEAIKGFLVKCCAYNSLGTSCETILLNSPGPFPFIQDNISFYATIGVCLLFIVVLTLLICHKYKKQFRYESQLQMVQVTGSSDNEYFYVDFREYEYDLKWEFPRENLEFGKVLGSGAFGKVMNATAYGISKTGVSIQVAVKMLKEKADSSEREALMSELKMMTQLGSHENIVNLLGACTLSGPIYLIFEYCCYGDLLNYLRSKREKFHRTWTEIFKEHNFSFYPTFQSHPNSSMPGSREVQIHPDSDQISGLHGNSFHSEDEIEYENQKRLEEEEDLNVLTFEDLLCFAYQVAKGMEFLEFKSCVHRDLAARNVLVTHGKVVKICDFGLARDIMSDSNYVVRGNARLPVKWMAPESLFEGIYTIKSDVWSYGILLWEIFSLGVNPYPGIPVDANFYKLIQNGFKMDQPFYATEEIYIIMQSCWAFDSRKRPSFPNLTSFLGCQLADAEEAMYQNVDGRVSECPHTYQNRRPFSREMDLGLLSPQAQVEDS
Source text: as §1

[1] = biological target: T4, full-length MAP2K7 N-terminal GST fusion protein (Homo sapiens, UniProt O14733); experiment: Whole-protein LC/TOF-MS of covalent labeling; format: binding; details: 2 equiv inhibitor, 5° C., 12 hours
T4 construct: purchased Carna Biosciences 07-147-10; host or cells: E. coli
T4 sequence (O14733 1-419): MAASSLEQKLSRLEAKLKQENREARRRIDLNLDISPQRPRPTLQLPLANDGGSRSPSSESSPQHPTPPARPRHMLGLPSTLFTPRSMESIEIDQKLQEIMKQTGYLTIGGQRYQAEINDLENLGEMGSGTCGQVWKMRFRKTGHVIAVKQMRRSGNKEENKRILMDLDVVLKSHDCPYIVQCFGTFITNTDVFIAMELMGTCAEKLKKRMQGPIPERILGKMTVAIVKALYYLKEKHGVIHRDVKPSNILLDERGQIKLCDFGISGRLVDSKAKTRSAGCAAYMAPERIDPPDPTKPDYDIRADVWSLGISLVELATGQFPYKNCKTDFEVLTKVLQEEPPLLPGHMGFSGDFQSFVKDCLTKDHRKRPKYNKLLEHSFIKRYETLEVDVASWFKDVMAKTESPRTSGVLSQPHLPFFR
Description: The construct was full-length MAP2K7 (1-419 amino acids of accession number NP_660186.1), which was prepared by the manufacturer as an N-terminal GST-fusion protein using an E. coli expression system. The construct was then purified by glutathione sepharose chromatography and shipped in a storage buffer containing 50 mM Tris —HCl, 150 mM NaCl, 0.05 mM Brij-35, 1 mM DTT, and 10% glycerol at pH=7.5.
Each whole-protein MS experiment was run with a 10 uL injection of a sample containing 50 μg of protein diluted to a final volume of 100 μL. The construct aliquots were first diluted to the appropriate volume with an aqueous solution of 150 mM NaCl and 50 mM Tris —HCl. The diluted samples were loaded on a Pierce spin column (ThermoFisher Scientific catalog number: 87777) to remove Brij-35 and finally eluted with the appropriate volume of the same buffer. Finally, 1.3 uL of DMSO (vehicle) or a 1 mM DMSO solution of covalent inhibitor was added, and the resulting roughly 101 uL solutions were incubated at 5° C. for 12 hours. The incubates were injected (10 uL) on an Agilent 6201 MSLC-TOF (ESI) with a protein column. A 10 minute water:acetonitrile gradient was performed, eluting recombinant proteins of interest in roughly 5 minutes. Masses were deconvoluted using MassHunter BioConfirm (maximum entropy).

[2] = test system: T-ALL cell lines (JURKAT, KOPT-K1, RPMI-8402, ALL-SIL); experiment: Cytotoxicity assay (CellTiter-Glo), T-ALL cell lines; format: cell-based; details: 48 hours

## O=C(CCl)Nc1cccc(Oc2cc(NCc3ccccc3)ncn2)c1 [Compound 25, N-(3-((6-(benzylamino)pyrimidin-4-yl)oxy)phenyl)-2-chloroacetamide]
MEK3
  activity/binding at MEK3: inactive; also recorded: lack of binding
EGFR
  binding to EGFR: interacted significantly; also recorded: appreciably bound
MEK1/2
  activity on MEK1/2: no appreciable activity
p38α/β
  activity on p38α/β: no appreciable activity
FLT3
  engagement of FLT3: does not engage
[1]
  covalent labeling of MAP2K7, whole-protein MS: covalent engagement; also recorded: Complete labeling
[2]
  dose-response cytotoxicity: marked cytotoxicity
